Assay results: patent publication US20180265867A1, “NUCLEIC ACID MOLECULES WITH ENHANCED ACTIVITY” (priority 2015, published 2018)
d = 2'-deoxy (DNA); r = 2'-OH (RNA)

Assays:
[1] = test system: MG63 and HOB cells; assay: Cell proliferation / toxicity by MTS assay; format: cell-based, human; conditions: 50 and 100 nM, 24 h post transfection
Method: Cell proliferation was assessed by MTS (3-(4,5-dimethylthiazol-2-yl)-5-(3-carboxymethoxyphenyl)-2-(4-sulfophenyl)-2H-tetrazolium, inner salt) reagent assay: MG63 cells were seeded at a density of 35 000 cells in 24-well culture plates, and cultured for 24 hours as mentioned above. Cells were transfected with 50 nM or 100 nM concentrations of cpRNA and negative control siRNAs with or without MATra-si, while control wells were left untreated. Each transfection experiment was performed in triplicate. Post-transfection, cells were incubated for 24 hours at 37° C. The viable cells were evaluated by MTS assay, using CellTiter 96®AQueousOne Solution Cell Proliferation Assay (Promega, USA) according to the manufacturer's protocol. The enzymatic reduction in MTS to formazan was quantified by an ELISA plate reader (Thermo Scientific) at 490 nm.
Thus, the role of siRNA topography on immune activation and cellular toxicity was investigated because increased RNA length has been reported to cause toxicity with increased interferon (IFN)-β expression. toxicity studies were performed using the MTS assay with two concentrations of GAPDH siRNA (50 and 100 nM) with different overhang lengths (dT2, dT5, and dT8) in MG63 and HOB cells and compared it with the scrambled siRNA sequence (FIG. 5).

[2] = test system: GAPDH; assay: Carrier-free GAPDH knockdown in different cell types (HOB, HCT116, MG63) by RT-PCR; format: cell-based, human
Method: Primary human osteoblast (HOB) cells isolated from human trabecular bone and keratinocytes and fibroblasts cells were isolated from skin tissue from healthy human donors. MG63 (human osteosarcoma cell line), HCT116 (human colon cancer cell line), HEK293 (human embryonic kidney 293 cells), C2C12 (mouse myoblast cell line) and MC3T3 (mouse osteoblast precursor cell line) cell lines were obtained from American Type Culture Collection, ATCC (Manassas, Va., USA). Cells were cultured until confluence was reached. The human cell experiments were approved by the local ethics committee (Ethical approval # Ups 03-561).
At 70% confluency, a day prior to transfection, the cells were seeded at a density of 35 000 cells in a 24-well cell culture plate to achieve 60-80% confluence at the day of transfection. Cell penetrating siRNAs (cpRNAs) of different lengths were transfected at 50 nM concentrations with Magnet Assisted Transfection (MATra-si) reagent for siRNAs (IBA GmbH, Göttingen, Germany) according to the manufacturers' protocols. […]
cDNA synthesis was performed in triplicate using total RNA reverse transcribed using High Capacity cDNA reverse transcription kit (Applied Biosystems, USA), with non-template control added to ensure a lack of signal in assay background. […] Data from samples with a Ct value equal to or below 35 were further analyzed. Samples were normalized relative to endogenous control and differences in cycle number thresholds were calculated using comparative quantitation 2^−ΔΔcT method (also called the ΔΔCT method), commonly used for analyzing siRNA induced gene knockdown efficiency.
The formulas used to calculate gene knockdown were as follows: First, the ΔCT was calculated as the mean cycle threshold for the target gene minus the mean cycle thresholds for the endogenous controls ACTB, each performed in triplicates: ΔCT=CT (target gene)−CT (endogenous control). Secondly, the ΔΔCT was calculated as the ΔCT of the target minus the ΔCT of negative control (NC): ΔΔCT=ΔCT (target)−ΔCT (NC). […]

[3] = Thermal denaturation (Tm) of siRNA duplexes; format: physicochemical; conditions: for Tm: 7.5 mM phosphate buffer pH 7.0 containing 140 mM KCl, 1 μM strands, 40-95° C.
Method: Thermal denaturation studies of siRNA was carried out in phosphate buffer, pH 7.0, containing 140 mM KCl. UV absorbance was monitored at 260 nm in the temperature range from 40 to 95° C. using a Lambda 35 UV-Vis spectrophotometer equipped with a Peltier temperature programmer with a heating rate of 0.5° C./min. Samples (1 μM RNA) were denatured at 90° C. for 3 min followed by slow cooling to 27° C. prior to the measurements. Tm values were obtained from the maxima of the first derivatives of the melting curves. All Tm values given are the averages of three independent sets of experiments (±0.3° C. error range).

| Substance | cytotoxicity (MTS assay) [1] | RNAi activity in primary cells ([2]; primary cells) | Tm [3] [°C] | GAPDH gene knockdown in different cell types ([2]; 50 nM) [%] | knockdown efficiency compared to canonical siRNA ([2]; HOB, HCT116 and MG63 cells) | Δ Tm ([3]; Tm relative to canonical siRNA (dT2)) [°C] | drop in Tm ([3]; as compared to canonical siRNA) |
| --- | --- | --- | --- | --- | --- | --- | --- |
| dT2: Canonical GAPDH siRNA, sense SEQ ID NO: 1, antisense SEQ ID NO: 2, dTdT 3′-overhang on both strands (sense CCGAGCCACAUCGCUCAGATT; antisense UCUGAGCGAUGUGGCUCGGTT; sugars from the 5' end r19 d2, backbone not given here) [reference compound] | do not impose toxicity | only limited activity | 81.2 |  |  |  |  |
| dT5: GAPDH siRNA, sense SEQ ID NO: 3 with dT5 3′-overhang, antisense SEQ ID NO: 2 with dT2 (sense CCGAGCCACAUCGCUCAGATTTTT; antisense UCUGAGCGAUGUGGCUCGGTT; sense: sugars from the 5' end r19 d5, backbone not given here; antisense: sugars from the 5' end r19 d2, backbone not given here) | do not impose toxicity |  | 80.6 | 80 | 3-4 fold | −0.6 | about 0.5 °C |
